The experiment deals with protein kinase C. Briefly: Inhibition of the protein kinase C activity in vitro (protein kinase C assay kit, Calbiochem). The format is biochemical. The following applies: both isomers as well as the racemate; test not specified at the place. The method, then:
For testing the inhibitory effect on protein kinase C a commercially available protein kinase C assay kit (e.g. Calbiochem, Cat. No. 538484) may be employed. For this purpose the phosphorylation of a pseudosubstrate is measured by means of a specific antibody. The substances to be investigated are employed as solution in dimethylsulfoxid. […] By means of this assay the effects on individual PKC isoforms and the inhibition thereof may be tested. The effective concentration may be then determined at a given ATP concentration.
According to this Calbiochem kit it is worked with a batch of 200 μl/well in the following manner: 13 μl of buffer solution, 26 μl of 1 mM ATP (pH 7.0), 13 μl of phosphatidyl serine (500 μg/ml), 13 μl of 20 mM CaCl2, 65 μl of H2O and 55 μl of H2O, respectively, and 10 μl of inhibitor solution in DMSO are mixed, wherein 108 μl are added to an uncoated well. 12 μl of PKC solution (protein content and activity respectively of 0.1 U/12 μl) are added thereto and 100 μl thereof are added to the coated microtiter plate. After incubation for 20 min at room temperature 100 μl stop solution is added. Then washing is done five times with washing solution. […] Thereafter there is again a treatment with 100 μl of stop solution, and then the measurement is done in the Elisa reader at 492 nm. […]

Turning to `O=C(O)C1Cc2c([nH]c3ccccc23)C2(N1)C(=O)C(c1c[nH]c3ccccc13)=C(c1c[nH]c3ccccc13)C2=O` (stereo not shown) [Pityriarubine A], the inhibitory effect result is listed as “distinct inhibitory effect”.

These data come from patent US20040116499A1, “Indole derivatives having an inhibitory effect on protein kinases” (priority 2001, published 2004).
